The source of these data is ChEMBL document CHEMBL3400138, “Synthesis of 3-azabicyclo[3.2.2]nonanes and their antiprotozoal activities” (Bioorg Med Chem Lett, 2015).

The IC50 is the concentration that inhibits the measured activity by half. The inhibition in vivo is the share of the control response that was lost under treatment. As a reminder, the MIC is the lowest concentration that inhibits growth of the organism.

Converted amounts (≈) assume the structure as drawn.

In experiment [1] the test system is L6. Put plainly: Cytotoxicity against rat L6 cells after 72 hrs by alamar blue assay. The note with it: L6, 72 h. It counts as cell-based.
In experiment [2] the test system is Plasmodium falciparum. Put plainly: Antiplasmodial activity against chloroquine and pyrimethamine resistant Plasmodium falciparum K1 infected in human red blood cells assessed as reduction in parasite viability after 48 hrs by [3H]-hypoxanthine incorporation assay. The format is functional, organism-based.
Experiment [3] can be described thus: Selectivity index, ratio of CC50 for rat L6 cells to IC50 for chloroquine and pyrimethamine resistant Plasmodium falciparum K1. It counts as functional.
In experiment [4] the test system is Trypanosoma brucei rhodesiense. The experiment in a line: Antitrypanosomal activity against Trypanosoma brucei rhodesiense STIB900 bloodstream forms after 72 hrs by alamar blue assay. It counts as functional, organism-based. The note with it: STIB900, 72 h. (In general: Resazurin is reduced to fluorescent resorufin, in cell work by metabolically active cells.)

Experiment [5] in a line: Selectivity index, ratio of CC50 for rat L6 cells to IC50 for Trypanosoma brucei rhodesiense STIB900. It counts as functional.
Experiment [6] concerns Plasmodium berghei. The experiment in a line: Growth inhibition of Plasmodium berghei infected in mouse. It counts as functional.
In experiment [7] the test system is Plasmodium berghei. Put plainly: Antiplasmodial activity against GFP-transfected Plasmodium berghei ANKA infected in NMRI mouse assessed as reduction in parasitemia at 50 mg/kg, ip administered 4, 24, 48 and 72 hrs post infection by FACS analysis. The note with it: route intraperitoneal. It counts as functional.
Experiment [8] deals with Plasmodium berghei. The experiment in a line: Antiplasmodial activity against GFP-transfected Plasmodium berghei ANKA infected in NMRI mouse assessed as mean survival day at 50 mg/kg, ip administered 4, 24, 48 and 72 hrs post infection (reference value: 4 to 6 days). It counts as functional. The note with it: route intraperitoneal.
For experiment [9], the system named is Plasmodium berghei. The experiment in a line: Antiplasmodial activity against GFP-transfected Plasmodium berghei ANKA infected in NMRI mouse assessed as reduction in parasitemia at 10 mg/kg, ip administered 4, 24, 48 and 72 hrs post infection by FACS analysis. The note with it: route intraperitoneal. The format is functional.
For experiment [10], the system named is Plasmodium berghei. The experiment in a line: Antiplasmodial activity against GFP-transfected Plasmodium berghei ANKA infected in NMRI mouse assessed as mean survival day at 10 mg/kg, ip administered 4, 24, 48 and 72 hrs post infection (reference value: 4 days). The format is functional. The note with it: route intraperitoneal.
The subject of experiment [11] is Mycolicibacterium smegmatis. Put plainly: Antimycobacterial activity against Mycobacterium smegmatis ATCC 14468 assessed as inhibition of bacterial growth after 72 hrs by MTT dye based microbroth dilution assay. The note with it: ATCC 14468, 72 h. The format is functional. In general terms: Formazan colour is commonly taken as a measure of viable cells.
For experiment [12], the system named is Escherichia coli. The experiment in a line: Antibacterial activity against Escherichia coli ATCC 25922 at 100 ug after 24 hrs. It counts as functional. The note with it: ATCC 25922, 24 h, read-out: DIZ.
For experiment [13], the system named is Proteus mirabilis. The experiment in a line: Antibacterial activity against Proteus mirabilis ATCC 14153 at 100 ug after 24 hrs. It counts as functional. The note with it: ATCC 14153, 24 h, read-out: DIZ.
Experiment [14] has as its system Staphylococcus aureus. The experiment in a line: Antibacterial activity against Staphylococcus aureus ATCC 25923 at 100 ug after 24 hrs. The note with it: ATCC 25923, 24 h, read-out: DIZ. The format is functional.
Experiment [15] relates to Enterococcus faecalis. Put plainly: Antibacterial activity against Enterococcus faecalis ATCC 14506 at 100 ug after 24 hrs. It counts as functional. The note with it: ATCC 14506, 24 h, read-out: DIZ.
Experiment [16] relates to Candida tropicalis. Put plainly: Antifungal activity against Candida tropicalis ATCC 13803 at 100 ug after 48 hrs. It counts as functional, organism-based.
The subject of experiment [17] is Candida parapsilosis. Put plainly: Antifungal activity against Candida parapsilosis ATCC 90018 at 100 ug after 48 hrs. The format is functional, organism-based.

Turning to `Cl.O=C1NCC2(N3CCOCC3)CC(c3ccccc3)C1C(c1ccccc1)C2` (centres undefined), the IC50 in experiment [1] was greater than 239 µM; in experiment [2], greater than 13.3 µM; in experiment [4], 128 µM. The “Ratio IC50” value is 18 in [3] and 1.9 in experiment [5].

`CN(C)C12CNCC(C(c3ccc(Cl)cc3)C1)C(c1ccc(Cl)cc1)C2.Cl` (centres undefined): the values for the IC50 in experiment [1], in experiment [2] and in experiment [4] were 8.96 µM, 0.77 µM and 0.34 µM, respectively. Further, the “Ratio IC50” value in experiment [3] came out at 11.63; in experiment [5], 26.4.

For `CN(C)C12CC(=O)NC(C(c3ccccc3)C1)C(c1ccccc1)C2.Cl` (racemic), in experiment [5], the “Ratio IC50” value amounted to 7.1.

On to `Cl.O=C1CC2(N3CCOCC3)CC(c3ccccc3)C(N1)C(c1ccccc1)C2` (racemic), for which the results for the IC50 in experiment [1], in [2] and in experiment [4] were greater than 239 µM, greater than 13.3 µM and 138 µM, respectively. The figures for the “Ratio IC50” value in [3] and in [5] were 18 and 1.7, respectively.

Regarding `Cl.O=C1CC2(N3CCCC3)CC(c3ccccc3)C(N1)C(c1ccccc1)C2` (racemic), the “Ratio IC50” value in [3] is listed as 28.5; in experiment [5], 6.6.

Turning to `Cl.O=C1CC2(N3CCCCC3)CC(c3ccccc3)C(N1)C(c1ccccc1)C2` (racemic), the “Ratio IC50” value in experiment [5] was 6.4.

For the compound `CN(C)C12CCNC(C(c3ccccc3)C1)C(c1ccccc1)C2.Cl` (racemic), the “growth inhibition (GI)” value in experiment [6] came out at 35%. Moreover, in experiment [5], the “Ratio IC50” value was found to be 181. In experiment [7], the inhibition in vivo at 50 mg/kg worked out at 35.1%. Moreover, the MSD in experiment [8] came out at 6.3 days.

As for `Cl.c1ccc(C2CC3(N4CCOCC4)CCNC2C(c2ccccc2)C3)cc1` (racemic), the IC50 in [1] was greater than 207 µM; in experiment [2], 6.84 µM; in experiment [4] it was 9.44 µM. For the same compound, the “Ratio IC50” value is recorded as 30.22 in [3] and 21.9 in [5].

Regarding `Cl.c1ccc(C2CC3(N4CCCC4)CCNC2C(c2ccccc2)C3)cc1` (racemic), the “Ratio IC50” value in experiment [5] is 103.

Turning to `Cl.c1ccc(C2CC3(N4CCCCC4)CCNC2C(c2ccccc2)C3)cc1` (racemic), in [5], the “Ratio IC50” value is 13.7.

In the case of `CN(C)C12CCNC(C(c3ccc(Cl)cc3)C1)C(c1ccc(Cl)cc1)C2.Cl` (racemic), in experiment [5], the “Ratio IC50” value was 143.

For `Cl.Clc1ccc(C2CC3(N4CCCC4)CCNC2C(c2ccc(Cl)cc2)C3)cc1` (racemic), in experiment [5], the “Ratio IC50” value stood at 152.

For the compound `Cl.Clc1ccc(C2CC3(N4CCCCC4)CCNC2C(c2ccc(Cl)cc2)C3)cc1` (racemic), the “Ratio IC50” value in experiment [5] turned out to be 124.

As for `CN(C)C12CNCC(C(c3ccccc3)C1)C(c1ccccc1)C2.Cl` (racemic), the IC50 turned out to be 122 µM in experiment [1], 0.27 µM in [2] and 1.58 µM in experiment [4]. In addition, the figures for the “Ratio IC50” value in experiment [3] and in [5] were 452.2 and 77.3, respectively. Besides, the inhibition in vivo at 50 mg/kg in experiment [7] came to 0%. Further, the MSD in experiment [8] was found to be 4 days.

As to `Cl.c1ccc(C2CC3(N4CCOCC4)CNCC2C(c2ccccc2)C3)cc1` (racemic), the half-maximal inhibitory concentration (IC50) in experiment [1] was determined as 43.3 µM; in experiment [2], 0.65 µM; in experiment [4], 3.84 µM. Also, the “Ratio IC50” value came out at 66.63 in experiment [3] and 11.3 in experiment [5].

In the case of `Cl.c1ccc(C2CC3(N4CCCCC4)CNCC2C(c2ccccc2)C3)cc1` (racemic), the IC50 in experiment [1] came to 122 µM; in [2] it was 0.75 µM; in experiment [4], 2.02 µM. For the same compound, the “Ratio IC50” value in experiment [3] is recorded as 163.1; in experiment [5], 60.5.

Consider `Cl.Clc1ccc(C2CC3(N4CCCC4)CNCC2C(c2ccc(Cl)cc2)C3)cc1` (racemic), for which the values for the IC50 in [1] and in experiment [4] were 9.11 µM and 0.26 µM, respectively. Moreover, the “Ratio IC50” value in [5] was 35.

For the compound `Cl.Clc1ccc(C2CC3(N4CCCCC4)CNCC2C(c2ccc(Cl)cc2)C3)cc1` (racemic), the IC50 in experiment [1] turned out to be 8.09 µM; in experiment [2], 0.37 µM; in experiment [4], 0.32 µM. Besides, the results for the “Ratio IC50” value in [3] and in [5] were 21.86 and 25.3, respectively.

Regarding `C[C@@H]1CC[C@H]2[C@@H](C)C(=O)O[C@@H]3O[C@@]4(C)CC[C@@H]1[C@]32OO4` [ARTEMISININ], in experiment [2], the IC50 worked out at 0.0064 µM.

For `CCN(CC)CCCC(C)Nc1ccnc2cc(Cl)ccc12` (centres undefined) [CHLOROQUINE], in experiment [9], the inhibition in vivo at 10 mg/kg was determined as 99.6%. In experiment [10], the MSD came to 20 days.

On to `NNC(=O)c1ccncc1` [ISONIAZID], for which the MIC in [11] was 4 µg/mL (≈ 29.2 µM).

As for `NC[C@H]1O[C@H](O[C@H]2[C@H](O)[C@@H](O[C@H]3O[C@H](CO)[C@@H](O)[C@H](N)[C@H]3O)[C@H](N)C[C@@H]2N)[C@H](O)[C@@H](O)[C@@H]1O` [KANAMYCIN], the zone of inhibition at 100 µg/disc in [12] and in experiment [13] was 20 mm in each case.

As to `CC1(C)S[C@@H]2[C@H](NC(=O)Cc3ccccc3)C(=O)N2[C@H]1C(=O)O` [PENICILLIN G], the zone of inhibition at 100 µg/disc in experiment [14] stood at 30 mm; in experiment [12], 15 mm; in experiment [15], 20 mm.

For NYSTATIN, the results for the inhibition zone (IZ) in experiment [16] and in [17] were 20 mm and 25 mm, respectively.
